System: G1 NIH 3T3 nuclei
Test: Cell-free DNA replication assay: G1 nuclei in HeLa S phase cytosol, biotin-dUTP incorporation, percentage of nuclei replicating (staining yellow)
Assay type: biochemical, mouse
Settings: about 50% yellow staining nuclei without inhibitor
Procedure: Nuclear templates were prepared by Dounce homogenisation as described previously, but from NIH 3T3 cells. G0, quiescent, cells were prepared by allowing NIH 3T3 cells to proliferate until they reached confluence and arrested their proliferation. They were released from quiescence by trypsinization and replating at ¼ the cell density. Cells were harvested as described previously (Krude et al., 1997) at measured times after release from quiescence. The 3T3 cells treated this way pass through G1 and begin to enter S phase synchronously about 21 hrs later. Nuclei and cytosolic extract were produced by hypotonically swelling the cells, scrape harvesting and Dounce-homogenizing. […]
In vitro replication assays were performed in 50 μl reactions in 1.5 ml polypropylene tubes (Sarstedt or Eppendorf). […] Biotin-dUTP incorporation was detected by staining with fluorescein-streptavidin, whilst total DNA was visualized by propidium iodide. […] The percentage of nuclei replicating were calculated from many prints of confocal images. […]
The competence of G1 NIH 3T3 nuclei to replicate was determined by repeating the collection of G1 nuclei at different times following release from G0 arrest and incubating the nuclei with S phase cytosol in accordance with the procedures of Example 1. […]

Q: `CC[C@H](CO)Nc1nc(NCc2ccccc2)c2ncn(C(C)C)c2n1` [roscovitin] was tested. Which “decrease of yellow staining nuclei” value (1 μM) did it give?
A: Its value is ~5 fold.

Q: What about the “decrease of yellow staining nuclei” value (1 mM) of the same compound?
A: The value was ~5 fold.

— US6521405B1, “Cell-free replication system and uses thereof” (Cancer Research Campaign Technology Limited, priority 1997, dated 2003)
